According to patent publication US4933363A, “Method for effecting systemic delivery of delta-9-tetrahydrocannabinol” (priority 1988, dated 1990):

Columns and labels:
[1] = 4×4 Latin square comparison of i.v., oral and suppository administration (GC/MS plasma levels); details: for Mean delta-9-tetrahydrocannabinol level in plasma: four monkeys; for concentration at 0.25 h / concentration at 0.5 h / concentration at 1 h / concentration at 1.5 h / concentration at 2 h / concentration at 3 h / concentration at 4 h / concentration at 6 h / concentration at 8 h / concentration at 24 h / concentration at 0.1 h: monkey, plasma
[2] = Suppository of N-methyl glucamine salt vs free hemisuccinate ester (GC/MS blood levels); details: equivalent to 10 mg parent drug per suppository, monkeys
[3] = various suppository formulations; cited from earlier work
[4] = cited from earlier work
[5] = Bioavailability of parent delta-9-tetrahydrocannabinol from a suppository (GC/MS of blood samples); assay type: in vivo, monkey; details: 10 mg/suppository
Method: The parent drug delta-9-tetrahydrocannabinol was formulated in a suppository form at 10 mg/suppository using Witepsol-H15 as the base. One suppository was administered to a monkey and blood samples collected at the same time intervals as shown under Examples II-V. GC/MS analysis of these samples was carried out for delta-9-tetrahydrocannabinol and its metabolite.

[6] = i.v., 0.5 mg/kg parent equivalent, 0.0 hr
[7] = Witepsol-H15, one monkey, GC/MS, all time points

Structure (SMILES): CCCCCc1cc(OC(=O)CCC(=O)O)c2c(c1)OC(C)(C)[C@@H]1CCC(C)=C[C@@H]21 [Delta-9-tetrahydrocannabinol hemisuccinate ester]
- equivalency of intravenous dosage of ester to intravenous dosage of parent ([1]; i.v., 0.5 mg/kg parent drug equivalent, monkeys): equivalency of the intravenous dosage of the hemisuccinate ester of delta-9-tetrahydrocannabinol to the intravenous dosage of the parent delta-9-tetrahydrocannabinol
- Mean delta-9-tetrahydrocannabinol level in plasma [1, 6]: 0.0 ng/mL
- concentration at 0.25 h [1]: 14.8 ng/mL
- concentration at 0.5 h [1]: 33.5 ng/mL
- concentration at 1 h [1]: 46 ng/mL
- concentration at 1.5 h [1]: 53.5 ng/mL
- concentration at 2 h [1]: 53.3 ng/mL
- concentration at 3 h [1]: 50 ng/mL
- concentration at 4 h [1]: 38 ng/mL
- concentration at 6 h [1]: 18.5 ng/mL
- concentration at 8 h [1]: 12.8 ng/mL
- concentration at 24 h [1]: 1.3 ng/mL
- concentration at 0.1 h ([1]; iv, 0.5 mg/kg): 2060 ng/mL
- concentration at 0.25 h ([1]; iv, 0.5 mg/kg): 669 ng/mL
- concentration at 0.5 h ([1]; iv, 0.5 mg/kg): 251 ng/mL
- concentration at 1 h ([1]; iv, 0.5 mg/kg): 95.8 ng/mL
- concentration at 1.5 h ([1]; iv, 0.5 mg/kg): 65.3 ng/mL
- concentration at 2 h ([1]; iv, 0.5 mg/kg): 42.5 ng/mL
- concentration at 3 h ([1]; iv, 0.5 mg/kg): 26.3 ng/mL
- concentration at 4 h ([1]; iv, 0.5 mg/kg): 18.5 ng/mL
- concentration at 6 h ([1]; iv, 0.5 mg/kg): 13 ng/mL
- concentration at 8 h ([1]; iv, 0.5 mg/kg): 8 ng/mL
- concentration at 24 h ([1]; iv, 0.5 mg/kg): 2.5 ng/mL
- delivery of delta-9-tetrahydrocannabinol to the blood vs oral sesame seed oil formulation of parent ([1]; suppository vs oral 10 mg, monkeys): extraordinary superiority
- Mean delta-9-tetrahydrocannabinol level in plasma ([1]; suppository, 0.0 hr): 0.0 ng/mL
- Mean delta-9-tetrahydrocannabinol level in plasma ([1]; suppository, 0.1 hr): 0.0 ng/mL
- blood levels, free ester vs N-methyl glucamine salt suppository [2]: virtually equivalent

Structure (SMILES): CCCCCc1cc(O)c2c(c1)OC(C)(C)[C@@H]1CCC(C)=C[C@@H]21 [delta-9-tetrahydrocannabinol]
- Mean delta-9-tetrahydrocannabinol level in plasma [1, 6]: 0.0 ng/mL
- concentration at 0.1 h ([1]; iv, 0.5 mg/kg): 1680 ng/mL
- concentration at 0.25 h ([1]; iv, 0.5 mg/kg): 335 ng/mL
- concentration at 0.5 h ([1]; iv, 0.5 mg/kg): 170 ng/mL
- concentration at 1 h ([1]; iv, 0.5 mg/kg): 102 ng/mL
- concentration at 1.5 h ([1]; iv, 0.5 mg/kg): 67.3 ng/mL
- concentration at 2 h ([1]; iv, 0.5 mg/kg): 55.8 ng/mL
- concentration at 3 h ([1]; iv, 0.5 mg/kg): 34 ng/mL
- concentration at 4 h ([1]; iv, 0.5 mg/kg): 22.8 ng/mL
- concentration at 6 h ([1]; iv, 0.5 mg/kg): 29 ng/mL
- concentration at 8 h ([1]; iv, 0.5 mg/kg): 17.3 ng/mL
- concentration at 24 h ([1]; iv, 0.5 mg/kg): 2.5 ng/mL
- concentration at 3 h ([1]; po, 10 mg): 0.5 ng/mL
- concentration at 4 h ([1]; po, 10 mg): 1.3 ng/mL
- concentration at 6 h ([1]; po, 10 mg): 2.3 ng/mL
- concentration at 8 h ([1]; po, 10 mg): 4.3 ng/mL
- concentration at 24 h ([1]; po, 10 mg): 0.8 ng/mL
- Mean delta-9-tetrahydrocannabinol level in plasma ([1]; oral, 10 mg in sesame oil, 0.0 hr): 0.0 ng/mL
- Mean delta-9-tetrahydrocannabinol level in plasma ([1]; oral, 10 mg in sesame oil, 0.1 hr): 0.0 ng/mL
- Mean delta-9-tetrahydrocannabinol level in plasma ([1]; oral, 10 mg in sesame oil, 0.25 hr): 0.0 ng/mL
- Mean delta-9-tetrahydrocannabinol level in plasma ([1]; oral, 10 mg in sesame oil, 0.5 hr): 0.0 ng/mL
- Mean delta-9-tetrahydrocannabinol level in plasma ([1]; oral, 10 mg in sesame oil, 1.0 hr): 0.0 ng/mL
- Mean delta-9-tetrahydrocannabinol level in plasma ([1]; oral, 10 mg in sesame oil, 1.5 hr): 0.0 ng/mL
- Mean delta-9-tetrahydrocannabinol level in plasma ([1]; oral, 10 mg in sesame oil, 2.0 hr): 0.0 ng/mL
- absorption and bioavailability via the rectal route [3]: no absorption, consequently no bioavailability achieved via the rectal route
- bioavailability via the oral routes ([4]; oral (e.g. chocolate cookies, sesame oil capsules)): quite low
- effect of fasting or food deprivation on absorption from the gastrointestinal tract ([4]; oral, fasting or food deprivation): decreased by fasting or food deprivation
- interpatient variability in absorption ([4]; oral, patients): extreme interpatient variability in absorption
- oral absorption ([4]; oral): slow and erratic
- bioavailability from a suppository dosage form ([5]; Witepsol-H15, monkey): lack of bioavailability
- delta-9-tetrahydrocannabinol detected in blood samples [5, 7]: Neither delta-9-tetrahydrocannabinol nor its metabolite was detected
- metabolite (11-nor-delta-9-tetrahydrocannabinol-9-COOH) detected in blood samples [5, 7]: Neither delta-9-tetrahydrocannabinol nor its metabolite was detected
